{
  "source": "patent US20250255293A1",
  "about": "“TISSUE DECONTAMINATION AND PRESERVATION SYSTEM” (priority 2024, published 2025)",
  "key": {"[1]": {"test_system": "chondrocytes of osteoarticular fracture fragments", "assay": "Viable chondrocyte density, live-dead calcein AM / ethidium homodimer assay (Example 3)", "assay_type": "cell-based, canine", "conditions": "for Viable Chondrocyte Density, mean (SD): 20 min immersion (10% povidone-iodine or 0.002% chlorhexidine)", "source_text": "Purpose-bred hounds (n=16) were humanely euthanized, immediately after which an open articular fracture in both elbows (n=32) was created using a captive bolt pistol. Each dog was positioned in sternal recumbency with one forelimb extended and secured in a custom made positioning apparatus. Fur was not clipped and no aseptic preparation or techniques were implemented. A captive bolt stunner pistol with a 4.75-inch penetrating pin and 1.25 grain cartridge was centered on the cranial (anterior) aspect of the distal humerus, immediately proximal to the joint. With firm pressure against the secured elbow, the pistol was discharged, and the procedure was repeated for the contralateral elbow. Soft tissues were removed aseptically and the distal humerus (n=32), proximal radius (n=32), and trochlea (n=32) were osteotomized and processed under operating room conditions in 1 of 3 ways: 1) Betadine ([…]): 0.9% saline irrigation (1 L), 10% povidone-iodine solution immersion (20 min), saline irrigation; 2) Chlorhexidine (n=42): saline irrigation, 0.002% chlorhexidine solution immersion (20 min), saline irrigation; 3) Control (n=12): untreated. Each osteoarticular fragment was placed in 200 ml of MOPS® solution (500 ml DMEM, 5 ml ITS (insulin (10 mg/L), transferrin 55 mg/L), selenium (6.7 μg/L)), 5 ml total penicillin (100 U/ml), streptomycin (100 μg/ml), amphotericin B (2.5 μg/ml), 5 ml L-glutamine (2 mM), 5 ml non-essential amino acids (0.1 mM), 1 ml ascorbic acid (50 ng/ml), and 5.46 ml dexamethasone (0.1 μM)) in a sterile container and stored under standard room temperature and humidity conditions for 7 (n=46) or 14 (n=48) days. At each time point, viable chondrocyte density (VCD) and quantitative microbial culture assessments were assayed, yielding a count of colony forming units (CFU) per specimen.\nViable chondrocyte density (VCD) was evaluated using a live-dead calcein AM (live stain) and ethidium homodimer (dead stain) assay, as previously described (Cook, et al., Am. J. Sports Med. 44:1260-1268, 2016). A minimum of two images from each osteochondral fragment were assessed via fluorescent microscopy. The VCD was determined by counting the number of viable cells in each image and dividing this by the area of the tissue in the image (#of viable cells/area of cartilage tissue mm^2). This methodology was aimed at providing an objective and quantifiable assessment of cell viability post-treatment.\nUnivariate comparison of VCD and CFU were performed via Kruskal-Wallis and Chi-squared test. Multivariate linear regression was used, controlling for osteotomy site and storage time, to determine the correlation between processing method and VCD or CFU. Data manipulation and statistical analysis were performed using R software."}, "[2]": {"test_system": "clinically relevant bacterial species", "assay": "Quantitative microbial culture of osteoarticular fracture fragments (Example 5)", "assay_type": "cell-based, Roseomonas sp, Methylobacterium sp", "conditions": "for decontamination of osteoarticular tissues based on quantitative microbial tissue cultures (in words): days 7 and 14 of MOPS storage", "method": "Skeletally mature purpose-bred research hounds (n=16) were humanely euthanized for purposes unrelated to the present study. Immediately following euthanasia, each dog was positioned in sternal recumbency with one forelimb extended and secured in a custom-made positioning apparatus. Fur was not clipped and no aseptic preparation or decontamination techniques were performed. Using a validated technique, a penetrating captive bolt stunner pistol (CASH Special, FRONTMATEC, Birmingham, United Kingdom) with a 1.25 grain cartridge was centered on the cranial (anterior) aspect of the distal humerus, immediately proximal to the elbow joint and with firm pressure against the secured elbow, the pistol was discharged, creating type 3 open distal humeral fractures. After the fractures were induced and radiographs obtained, the skin and soft tissues were aseptically removed. For each elbow (n=32), osteoarticular tissues were obtained from the distal humerus, proximal radius and proximal ulna such that 96 contaminated, devascularized, osteoarticular fracture fragments were randomly allocated to undergo treatment using one of the following protocols for comparison: 1)⋅Betadine (n=42): bulb irrigation using 1 L of 0.9% saline, followed by immersion in 10% povidone-iodine solution for 20 min, followed by bulb irrigation using 1 L of 0.9% saline; 2)⋅Chlorhexidine (n=42): bulb irrigation using 1 L of 0.9% saline, followed by immersion in 0.002% chlorhexidine gluconate solution immersion for 20 min, followed by bulb irrigation using 1 L of 0.9% saline; and 3)⋅Injured Control (n=12): no decontamination treatment. Each fragment was then immediately placed in 200 ml of Missouri Osteochondral Preservation System (MOPS®) solution in individual sterile closed containers, transported to the on-site laboratory and placed in a dedicated storage cabinet in standard room temperature and humidity conditions for 7 or 14 days.\nMicrobial Cultures. At days 7 (n=21) or 14 (n=21) of storage, osteoarticular fracture fragments were also collected and processed for quantitative microbial culture. […] Microorganism cultures were quantified using Colony-Forming Unit (CFU) counts per milliliter of broth. […] Post incubation, the number of colonies formed on each plate was counted. The number of CFUs per milliliter (CFU/ml) was calculated using the formula: CFU/ml=(number of colonies×dilution factor)/volume inoculated. […]\nStatistical Analysis. All data were analyzed using statistical software R Studio, version 4.3.1 (Posit Software, Boston, MA, USA). Descriptive statistics for VCD, % VCD and CFU were calculated to report means, standard deviations, ranges and percentages. […]"}, "[3]": {"test_system": "contaminated human femoral osteochondral allografts", "conditions": "0.002% chlorhexidine gluconate, pulse lavage (1 L) / immediate intraoperative treatment, cited from earlier work"}, "[4]": {"test_system": "human chondrocyte", "conditions": "cited from earlier work"}, "[5]": {"conditions": "listed as chlorhexidine gluconate"}},
  "note": "Like-named read-outs stand apart in the source and are kept apart here.",
  "data": [
    {"molecule": "[H]/N=C(\\N/C(=N/[H])NCCCCCCNC(=N)NC(=N)Nc1ccc(Cl)cc1)Nc1ccc(Cl)cc1", "note": "[Chlorhexidine, chlorhexidine gluconate]", "values": [
      {"measurement": "mean VCD", "setting": "[1]; at 7 days", "result": 772},
      {"measurement": "mean VCD", "setting": "[1]; at 14 days", "result": 710},
      {"measurement": "increase of VCD relative to control treatment", "setting": "[1]; multivariate linear regression, controlling for storage timing and osteotomy site", "result": 377, "unit": "VCD"},
      {"measurement": "maintenance of chondrocyte viability (in words)", "setting": "[1]; saline irrigation, 0.002% chlorhexidine immersion, room temperature storage in MOPS", "result": "maintaining chondrocyte viability for up to 14 days"},
      {"measurement": "Viable Chondrocyte Density, mean (SD)", "setting": "[1]; storage time 7 days in MOPS at room temperature", "result": "772.3 (257.0) mm^−2"},
      {"measurement": "Viable Chondrocyte Density, mean (SD)", "setting": "[1]; storage time 14 days in MOPS at room temperature", "result": "709.5 (338.0) mm^−2"},
      {"measurement": "CFUs for clinically relevant bacterial species", "setting": "[2]; days 7 and 14", "result": "No CFUs"},
      {"measurement": "decontamination of osteoarticular tissues based on quantitative microbial tissue cultures (in words)", "setting": "[2]", "result": "effective at decontamination"},
      {"measurement": "decontamination of osteoarticular tissues based on quantitative microbial tissue cultures (in words)", "setting": "[2]; listed as chlorhexidine", "result": "effectively decontaminated"},
      {"measurement": "decontamination of osteoarticular tissues based on quantitative microbial tissue cultures (in words)", "setting": "[2]; [5]", "result": "effective for decontaminating"},
      {"measurement": "decontamination of contaminated osteochondral allografts", "setting": "[3]; listed as Chlorhexidine Gluconate", "result": "effective decontamination"},
      {"measurement": "decontamination of contaminated osteochondral allografts", "setting": "[3]; [5]", "result": "effective for complete decontamination"},
      {"measurement": "chondrocyte viability after treatment", "setting": "[4]; 0.002% chlorhexidine gluconate, 7 days in tissue culture, listed as Chlorhexidine Gluconate", "result": "preserving chondrocyte viability for up to 7 days"},
      {"measurement": "chondrocyte viability after treatment", "setting": "[4]; 0.002% chlorhexidine gluconate, 7 days in tissue culture, listed as chlorhexidine gluconate", "result": "maintain chondrocyte viability at day-0 level for 7 days"},
      {"measurement": "chondrocyte viability after treatment", "setting": "[4]; higher concentrations of CHG than 0.002%", "result": "significant chondrocyte viability loss within 24 hours"}
    ]}
  ]
}
